For data set [1], the system named is NO production in LPS-induced RAW 264.7 macrophages. As to the kind of experiment: Inhibition of LPS induced NO production in RAW264.7 macrophages (Griess reagent). It is filed as cell-based, mouse. The protocol:
All compounds were assayed by measuring the inhibitory effects on NO production induced by LPS in mouse macrophage RAW 264.7 cells. The RAW 264.7 cells were seeded in each well of a 96-well plate at a concentration of 5 × 10^5 cells/ml in DMEM medium containing 10% fetal bovine serum, 2 mmol/l glutamine, 100 U/ml penicillin, and 100 μg/ml streptomycin. After incubation at 37°C in a humidified atmosphere of 5% CO2 air for 12 h, cells were treated with LPS (1 μg/ml) and compounds ([…], and compound was dissolved in DMSO to dilute until the final DMSO concentration <0.1%, v/v), then incubation for 24 h at 37°C. NO production was determined by measuring the quantity of nitrite in the culture medium by the Griess reagent. Aminoguanidine was selected as a positive control. A 50 μl of the supernatant of culture medium was mixed with 100 μl of the Griess reagent. Using nitrite to generate a standard curve, nitrite production was measured by a microplate reader at 540 nm. Cell viability was examined by the MTT method (Wu et al., [2016]). The compounds with inhibitory rate more than 50% at a dose of 50 μg/ml were further detected in the gradient concentrations to calculate IC50 values. […]
(§1) 7. Assay for inhibition toward nitric oxide production in RAW264.7 macrophages The experiment was conducted according to a literature procedure.1 Murine monocytic RAW264.7 cells grown in 96-well cell culture plates (2 × 10^5 cells/well) and pretreated with serial concentrations of the compounds 1‒8 for 30 min, followed by stimulation with LPS (1 μg/mL) under a humidified atmosphere with 5% CO2 at 37°C. After 24 h, the NO production of the supernatant was determined by adding the 100 μL of Griess reagent. Subsequently, the MTT
(§2) [3-(4,5-dimethylthiazol-2-yl)-2,5-diphenyltetrazolium bromide] reduction2 was used to evaluate the cell viability, and results were expressed as the mean value of triplicate determinations. The positive control was aminoguanidine.2 […]
A general note: The Griess reaction detects nitrite, a stable product of nitric oxide.

Data set [2] can be described thus: Cytotoxic activity toward tumor cell line SMMC7721. It counts as cell-based. Particulars: human, SMMC7721 tumor cells.
Data set [3] is described as follows: Cytotoxic activity toward tumor cell line U937. It counts as cell-based. Particulars: human, U937 tumor cells.
A short description of data set [4]: Cytotoxic activity toward tumor cell line A549. Particulars: human, A549 tumor cells. It is filed as cell-based.
Data set [5] can be described thus: Cell viability of RAW264.7 macrophages (MTT method). It counts as cell-based, mouse. As to conditions: mouse. As to the method: as §1, §2
Background: Tetrazolium assays rely on reduction of a dye to a coloured formazan, in cell work by metabolically active cells.

Data set [6] has as its system HBV virus in HepG2.2.15 cells. As to the kind of experiment: In vitro anti-HBV effects (HBV DNA, real time PCR). It counts as cell-based. As to conditions: 10 μM. The protocol:
HepAD38 cells were cultured with DMEM in 48-well plate at 1 × 10^5 cells/well for 24 h, then treated with 10 μM of each compound for 72 h. After 4 days, the cells were washed with precooled PBS for 2 times. HBV progeny DNA of HepAD38 cells were extracted using QIAamp DNA Blood Mini kit (Biomiga) according to the manufacturer's instruction. Total DNA was reversely transcribed using PrimeScript RT reagent Kit (Takara, Dalian, China). PCR amplification was performed on an StepOne Plus real time PCR system (Applied Biosystems, Foster City, CA) using the SYBR Green Master Mix (Applied Biosystems, Foster City, CA). All experiments were performed in triplicate, and the relative levels of assayed HBV DNA were calculated with the delta–delta CT method using lamivudine as a positive control, and normalized to non-treated control. […]
8. Assay for in vitro anti-HBV effects
HepG2. 2. 15 cells were cultured with DMEM in 48-well plate at 1×10^5 cells/well for 24 h, then treated with 10 µM of compounds for 72 h. At d 4, these cells were washed 2 times with precooled PBS, and treated with 10 µM of compounds for 72 h.
HBV progeny DNA of HepG2. 2. 15 cells were extracted using QIAamp DNA Blood Mini kit (Biomiga) according to the manufacturer's instruction. Then total DNA was reverse transcribed using PrimeScript RT reagent Kit (Takara, Dalian, China). The primers were designed and synthesized by Takara, and the sequences of the primers […]
PCR amplification was performed on an StepOne Plus real time PCR system (Applied Biosystems, Foster City, CA) using the SYBR Green Master Mix (Applied Biosystems, Foster City, CA). All experiments were performed in triplicate, and the relative levels of assayed HBV DNA were calculated with the […]
delta‒delta CT method using lamivudine expressions as positive control, and normalized to non-treated control. […]
(Takara, Dalian, China). The primers were designed and synthesized by Takara, the […]
performed on an StepOne Plus real time PCR system (Applied Biosystems, Foster City, CA) using the SYBR Green Master Mix (Applied Biosystems, Foster City, CA). […]
Background: In qPCR the cycle at which signal appears reflects the starting amount.

The subject of another data set is HaCaT cells. Briefly: Protection against UVB-induced cell damage in HaCaT cells (MTT assay). As to conditions: HaCaT cells, UVB 30 mJ/cm^2, 20 μM, 24 h; UVB alone 70% of normal group. It counts as cell-based. The protocol:
HaCaT cells were seeded at 5 × 10^5 cells per well in 6-well plates and incubated under starvation conditions for 24 h using serum-free MEM. HaCaT cells were exposed to UVB irradiation (UVB lamp: SUV-1000, Sigma-China) at a dose of 30 mJ/cm^2. After UVB irradiation, DMEM medium containing 1 (20 μM) or epigallocatechin gallate (20 μM) was added and the cells were incubated for 24 h, and then the MTT assay was performed.

[7] abbreviates: Mus musculus, RAW264.7, 24 h, LPS 1 μg/ml, 24 h.
[8] abbreviates: RAW264.7 macrophages, RAW264.7, MTT, Table 3, read-out: CC50 (μM) Cytotoxicity.
The mark [9] stands for this setting: RAW264.7 macrophages, Table S9 of the supplement, read-out: CC50 (M), 50% cytotoxic concentration.
The mark [10] stands for this setting: Mus musculus, RAW264.7, Table S9 of the supplement, read-out: IC50 (M), 50% inhibitory concentration.
The mark [11] stands for this setting: Mus musculus, RAW264.7, read-out: IC50 (M), 50% inhibitory concentration.
Setting [12] is: RAW264.7, MTT, Table 3, read-out: CC50 (μM) Cytotoxicity.
Setting [13] is: Table S9 of the supplement, read-out: CC50 (M), 50% cytotoxic concentration.

Where two headings read alike, the source gives them in different places.

For orientation: inhibition means the percentage by which the read-out fell short of the control. A higher inhibition goes with a strong effect.

Consider `N=C(N)NN` [Aminoguanidine, reference compound], for which the IC50 in data set [1] (LPS 1 μg/ml, 24 h, Table 3, read-out: IC50 (μM) NO) was 7.62 ± 0.08 µM.

Regarding `C=C1C2(C)CC3C4(C)C=CC(=O)OC(C)(C)C4CCC3(C)C13C(=O)OC(C)C3(O)C2=O` [Compound 2, (5aS, 5bS, 7R, 8aR, 9S, 11aR, 11bS, 13aS)-8a-hydroxy-1,1,5a, 7,9, 11b-hexamethyl-14-methylene-5a, 5b, 6,7,8a, 9, 11b, 12, 13, 13a-decahydro-1H, 11H-7,11a-methanofuro[3″,4″:3′,4′]cyclohepta[1′,2′:3,4]benzo[1,2-c]oxepine-3,8,11-trione], the IC50 was over 10 µM in data set [2]; 37.7 ± 5.25 µM in data set [1] (Mus musculus, RAW264.7, 24 h, LPS 1 μg/ml, 24 h, Table 3, read-out: IC50 (μM) NO); over 10 µM in data set [3]; over 10 µM in data set [4]. In data set [1] (LPS-induced RAW 264.7 macrophages), the “inhibition toward NO production (in words)” value is “moderate inhibition”. Testing at 50 µg/mL in data set [1] (setting [7]) gave an inhibition of 58%. Further, the CC50 at 24 h in data set [5] (setting [8]) was over 100 µM; in data set [5] (setting [9]) it was over 50 µM.

As to `C=C1[C@@]2(C)C[C@H]3[C@](C)(CCC(=O)OC)[C@@H](C(C)(C)O)CC[C@]3(C)[C@@]13C(=O)O[C@H](C)[C@@]3(O)C2=O` [Compound 4, methyl 3-((3R, 3aR, 5R, 6aS, 7S, 8S, 10aS, 10bR)-3a-hydroxy-8-(2-hydroxypropan-2-yl)-3,5,7,10a-tetramethyl-11-methylene-1,4-dioxodecahydro-1H,3H-5,10b-methanobenzo[3,4]cyclohepta[1,2-c]furan-7-yl)propanoate], the IC50 in data set [2] was over 10 µM; in data set [1] (setting [10]) it was over 50 µM; in data set [3], over 10 µM; in data set [4], over 10 µM. This compound also registered an inhibition at 50 µg/mL in data set [1] (setting [7]) of 32%. In addition, the “inhibitory rate of DNA expression of the HBV virus” value (“inhibitory rate” for short) in data set [6] turned out to be 15%. For the same compound, the CC50 at 24 h was over 100 µM in data set [5] (setting [8]) and over 50 µM in data set [5] (setting [9]).

On to `C=C1[C@@]2(C)C[C@H]3[C@](C)(CCC(=O)OC)[C@@H](C(C)(C)O)CC[C@]3(C)[C@@]13C(=O)O[C@@H](C)[C@@]3(O)C2=O` [Compound 5, methyl 3-((3S, 3aR, 5R, 6aS, 7S, 8S, 10aS, 10bR)-3a-hydroxy-8-(2-hydroxypropan-2-yl)-3,5,7,10a-tetramethyl-11-methylene-1,4-dioxodecahydro-1H,3H-5,10b-methanobenzo[3,4]cyclohepta[1,2-c]furan-7-yl)propanoate], for which the IC50 is over 10 µM in data set [2], over 50 µM in data set [1] (setting [10]), over 10 µM in data set [3] and over 10 µM in data set [4]. In data set [1] (setting [7]), this compound had an inhibition at 50 µg/mL of 36%. Moreover, the “inhibitory rate” value in data set [6] is 10%. In addition, the CC50 at 24 h is over 100 µM in data set [5] (setting [8]) and over 50 µM in data set [5] (setting [9]).

`C=C1C2(C)CC3C4(C)C(O)C5CC(C)(OC5=O)C4CCC3(C)C13C(=O)OC(C)C3(O)C2=O` [Compound 6, (1R, 4S, 5R, 5aS, 5bR, 7R, 8aR, 9R, 11aR, 11bS, 13aS)-5,8a-dihydroxy-1,5a,7,9,11b-pentamethyl-14-methylenedodecahydro-1H,11H-1,4:7,11a-dimethanofuro[3″,4″:3′,4′]cyclohepta[1′,2′:3,4]benzo[1,2-c]oxepine-3,8,11-trione]: the IC50 in data set [2] is over 10 µM; in data set [1] (setting [11]), over 50 µM; in data set [3], over 10 µM; in data set [4] it was over 10 µM. For the same compound, the CC50 at 24 h was over 100 µM in data set [5] (setting [12]) and over 50 µM in data set [5] (setting [13]).

As for `C=C1[C@@]2(C)C[C@H]3[C@](C)(CCC(=O)OC)[C@@H](C(C)(C)O)CC[C@]3(C)[C@]1(C(=O)OC)C(=O)[C@@](C)(O)C2=O` [Compound 7, preaustinoid D], the IC50 in data set [2] is over 10 µM; in data set [1] (setting [10]), over 50 µM; in data set [3], over 10 µM; in data set [4], over 10 µM. 50 µg/mL produced 28% inhibition in data set [1] (setting [7]). Besides, the CC50 at 24 h was over 100 µM in data set [5] (setting [8]) and over 50 µM in data set [5] (setting [9]).

On to `C=C1[C@@]2(C)C[C@H]3[C@]4(C)C=CC(=O)OC(C)(C)[C@H]4CC[C@]3(C)[C@]1(C(=O)OC)C(=O)[C@@](C)(O)C2=O` [Compound 8, preaustinoid A2], for which the IC50 in data set [2] was over 10 µM; in data set [1] (setting [11]), over 50 µM; in data set [3], over 10 µM; in data set [4], over 10 µM. Besides, the CC50 at 24 h in data set [5] (setting [12]) was over 100 µM; in data set [5] (setting [13]) it was over 50 µM.

For the compound `O=C(O[C@@H]1Cc2c(O)cc(O)cc2O[C@@H]1c1cc(O)c(O)c(O)c1)c1cc(O)c(O)c(O)c1` [epigallocatechin gallate, reference compound], in the data set on HaCaT cells, the “cell viability after UVB irradiation” value came out at 75%.

As for `Nc1ccn([C@@H]2CS[C@H](CO)O2)c(=O)n1` [lamivudine, reference compound], the “inhibitory rate” value in data set [6] turned out to be 75%.
